In test [1] the target is Pepsin A (Sus scrofa, UniProt P00791). As to the kind of experiment: Inhibition of porcine pepsin.
Test [2] can be described thus: Compound was evaluated for the ability to inhibit penicillopepsin.
Test [3] concerns the target T1, Renin (Homo sapiens, UniProt P00797).
T1 sequence (P00797 whole entry): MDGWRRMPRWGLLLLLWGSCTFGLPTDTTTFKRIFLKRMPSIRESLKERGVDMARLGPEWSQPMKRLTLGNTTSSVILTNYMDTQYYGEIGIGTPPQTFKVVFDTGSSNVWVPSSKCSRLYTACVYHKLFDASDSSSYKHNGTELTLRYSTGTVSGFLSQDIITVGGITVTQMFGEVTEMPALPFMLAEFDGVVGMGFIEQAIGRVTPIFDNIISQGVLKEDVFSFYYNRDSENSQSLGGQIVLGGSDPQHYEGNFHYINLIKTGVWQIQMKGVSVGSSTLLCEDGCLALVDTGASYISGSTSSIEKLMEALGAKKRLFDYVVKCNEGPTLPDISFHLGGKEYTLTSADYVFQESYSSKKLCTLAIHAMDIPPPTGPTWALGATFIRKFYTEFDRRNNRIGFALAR
As to the kind of experiment: Compound was evaluated for the ability to inhibit human plasma renin. The class given is cell-free.

Data on 22 molecules can be found in ChEMBL document CHEMBL1122949, “Pepstatin-derived inhibitors of aspartic proteinases. A close look at an apparent transition-state analogue inhibitor” (J Med Chem, 1985).

As a reminder, the Ki is a dissociation constant, usually derived from enzyme kinetics or from competition with a known ligand. Usually IC50 stands for the concentration that inhibits the measured activity by half. A lower IC50 goes with greater potency.

Numbered stars: 1 amine (or outer) side, 2 acyl side, 3 side chain; on linkers, the order of the positions; unused ones are H or OH. Square brackets hold non-standard residues; d marks the D form. Peptide text beside a SMILES is read from it. * marks the point of attachment. ξ: configuration not given here. X1 = CC[C@H](C)[C@H](NC(=O)[C@H](CC(C)C)NC[C@H](CC(C)C)N*)C(=O)N[C@@H](Cc1c[nH]cn1)C(=O)O; LeuΨ(ξCHOHCH2)Val = CC(C)C[C@H](N[*:1])C(O)C[C@H](C(=O)[*:2])C(C)C; Sta(3ξ) = CC(C)C[C@H](N[*:1])C(O)CC(=O)[*:2]; Isovaleryl = CC(C)CC(=O)*; Boc = CC(C)(C)OC(=O)*

Sequence of Pepsin A (P00791 whole entry): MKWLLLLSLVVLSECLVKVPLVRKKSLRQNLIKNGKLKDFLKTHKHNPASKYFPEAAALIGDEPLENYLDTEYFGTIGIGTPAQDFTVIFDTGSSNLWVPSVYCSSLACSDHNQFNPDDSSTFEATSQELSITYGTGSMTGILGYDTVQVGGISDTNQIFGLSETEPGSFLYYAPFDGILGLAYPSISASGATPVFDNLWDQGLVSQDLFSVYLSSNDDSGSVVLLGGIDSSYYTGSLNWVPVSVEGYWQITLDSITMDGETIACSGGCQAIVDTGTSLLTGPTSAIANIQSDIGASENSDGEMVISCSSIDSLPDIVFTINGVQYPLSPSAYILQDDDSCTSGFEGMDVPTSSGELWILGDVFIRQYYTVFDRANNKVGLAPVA

`CC(C)CNC(=O)[C@H](C)NC(=O)[C@@H](C)CC(O)[C@@H](CC(C)C)NC(=O)[C@H](NC(=O)CC(C)C)C(C)C` (stereo in doubt; 16b(4R)) displayed an inhibition constant (Ki) in test [1] of 700 nM.

Regarding `CC(C)CCC(=O)NC(=O)CNC(=O)CC(O)[C@@H](CC(C)C)NC(=O)[C@H](NC(=O)CC(C)C)C(C)C` (some centres not stated), affinity in test [1] was put at a Ki of 56 nM.

In test [1], `CC(C)CNC(=O)[C@@H](C)NC(=O)[C@@H](C)CC(=O)[C@H](CC(C)C)NC(=O)[C@@H](NC(=O)CC(C)C)C(C)C` yielded a Ki of 110 nM.

Regarding `CC(C)CCC(=O)NC(=O)[C@H](C)NC(=O)CC(O)[C@@H](CC(C)C)N(C)C(=O)[C@H](NC(=O)[C@@H](NC(=O)CC(C)C)C(C)C)C(C)C` (stereo in doubt; 13a(3s)), the inhibition constant Ki is 1200 nM in test [1] and over 5000 nM in test [2].

`CC[C@H](C)[C@H](NC(=O)CC(O)[C@H](CC(C)C)NC(=O)[C@H](Cc1c[nH]cn1)NC(=O)[C@H](Cc1ccccc1)NC(=O)[C@@H]1CCCN1C(=O)[C@H](Cc1c[nH]cn1)NC(=O)CC(C)C)C(=O)N[C@@H](Cc1ccccc1)C(=O)OC` (some centres not stated) (Isovaleryl-HPFH[Sta(3ξ)]IF-OMe) yielded an IC50 in test [3] of 0.6 nM.

In the case of `CC(C)CCC(=O)NC(=O)[C@H](C)NC(=O)CC(O)[C@@H](Cc1ccccc1)NC(=O)[C@H](NC(=O)CC(C)C)C(C)C` (some centres not stated), the inhibition constant (Ki) in test [1] turned out to be 0.9 nM.

Molecule `CC[C@H](C)[C@H](NC(=O)[C@H](CC(C)C)NC[C@H](CC(C)C)NC(=O)[C@H](Cc1c[nH]cn1)NC(=O)[C@H](Cc1ccccc1)NC(=O)[C@@H]1CCCN1C(=O)[C@H](Cc1c[nH]cn1)NC(=O)[C@@H]1CCCN1)C(=O)N[C@@H](Cc1c[nH]cn1)C(=O)O` (H-PHPFH-X1) displayed an IC50 in test [3] of 10 nM.

As for `CC(C)CCC(=O)NC(=O)[C@H](C)NC(=O)CC(=O)[C@H](CC(C)C)NC(=O)[C@@H](NC(=O)[C@@H](NC(=O)CC(C)C)C(C)C)C(C)C`, the figures for the Ki in test [1] and in test [2] were 10 nM and 85 nM, respectively.

As to `CC[C@H](C)[C@H](NC(=O)CC(O)[C@H](CC(C)C)NC(=O)[C@H](Cc1c[nH]cn1)NC(=O)[C@H](Cc1ccccc1)NC(=O)[C@@H]1CCCN1C(=O)[C@H](Cc1c[nH]cn1)NC(=O)CC(C)C)C(=O)N[C@@H](Cc1ccccc1)C(N)=O` (some centres not stated) (Isovaleryl-HPFH[Sta(3ξ)]IF-NH2), half-maximal inhibition in test [3] (IC50) was put at 1.9 nM.

For `CC(C)CCC(=O)NC(=O)[C@@H](C)CC(O)[C@@H](CC(C)C)NC(=O)[C@H](NC(=O)CC(C)C)C(C)C` (some centres not stated), the affinity in test [1], expressed as Ki, was 27 nM.

Regarding `CCOC(=O)CC(O)[C@H](CC(C)C)NC(=O)[C@@H](NC(=O)[C@@H](NC(=O)CC(C)C)C(C)C)C(C)C` (some centres not stated), the inhibition constant (Ki) in test [1] worked out at 10 nM; in test [2] it was 47 nM.

`CC(C)CNC(=O)[C@H](C)NC(=O)[C@@H](C)CC(O)[C@@H](CC(C)C)NC(=O)[C@H](NC(=O)CC(C)C)C(C)C` (stereo in doubt; 16a(4S)) had a Ki in test [1] of 3 nM.

In turn, `CC(C)CCC(=O)NC(=O)[C@H](C)NC(=O)CCC(O)[C@@H](CC(C)C)NC(=O)[C@H](NC(=O)CC(C)C)C(C)C` (some centres not stated) came in with a Ki in test [1] of 50 nM.

`CC[C@H](C)[C@H](NC(=O)[C@H](CC(C)C)NC[C@H](CC(C)C)NC(=O)C(Cc1c[nH]cn1)NC(=O)[C@H](Cc1ccccc1)NC(=O)[C@@H]1CCCN1C(=O)C(N)Cc1c[nH]cn1)C(=O)NC(Cc1c[nH]cn1)C(=O)O` (stereo in doubt) gave a half-maximal inhibitory concentration (IC50) in test [3] of 1000 nM.

The molecule `CC(C)CNC(=O)CNC(=O)[C@@H](C)CC(O)[C@@H](CC(C)C)NC(=O)[C@H](NC(=O)CC(C)C)C(C)C` (some centres not stated) gave a Ki in test [1] of 53 nM.

Consider `CC(C)CC(=O)N[C@H](C(=O)N[C@H](C(=O)N[C@H](CCC(=O)NC(C)C(=O)N[C@H](CCC(=O)O)CC(C)C)CC(C)C)C(C)C)C(C)C` (some centres not stated), for which, in test [1], the inhibition constant Ki was determined as 210 nM.

`CC[C@H](C)[C@H](NC(=O)[C@@H](CC(O)[C@H](CC(C)C)NC(=O)[C@H](Cc1cnc[nH]1)NC(=O)[C@H](Cc1ccccc1)NC(=O)[C@@H]1CCCN1C(=O)[C@H](Cc1cnc[nH]1)NC(=O)OC(C)(C)C)C(C)C)C(=O)N[C@@H](Cc1cnc[nH]1)C(=O)O` (some centres not stated) (Boc-HPFH[LeuΨ(ξCHOHCH2)Val]IH-OH) came in with an IC50 in test [3] of 0.7 nM.

For the molecule `CC(C)CCC(=O)NC(=O)C(C)NC(=O)CC(O)[C@H](CC(C)C)NC(=O)[C@@H](NC(=O)[C@@H](NC(=O)CC(C)C)C(C)C)C(C)C` (some centres not stated), the Ki in test [1] was 2000 nM.

The molecule `CC(C)CCC(=O)NC(=O)[C@@H](C)NC(=O)CC(=O)[C@H](CC(C)C)NC(=O)[C@@H](NC(=O)CC(C)C)C(C)C` registered an inhibition constant (Ki) in test [1] of 56 nM.

In test [3], `CC[C@H](C)[C@H](NC(=O)[C@H](Cc1ccccc1)NC(=O)[C@H](Cc1ccccc1)NC(=O)[C@H](Cc1c[nH]cn1)NC(=O)[C@H](Cc1ccccc1)NC(=O)[C@@H]1CCCN1C(=O)[C@H](Cc1c[nH]cn1)NC(=O)[C@@H]1CCCN1)C(=O)N[C@@H](Cc1c[nH]cn1)C(=O)O` gave an IC50 of 7000 nM.

`CC(C)CC(=O)N[C@H](C(=O)N[C@H](C(=O)N[C@@H](CC(C)C)[C@@H](O)CC(=O)N[C@@H](C)C(=O)N[C@@H](CC(C)C)[C@@H](O)CC(=O)O)C(C)C)C(C)C` [PEPSTATIN]: the inhibition constant (Ki) in test [1] worked out at 0.056 nM; in test [2] it was 0.15 nM.

Turning to `CC(C)CCC(=O)NC(=O)[C@@H](C)NC(=O)CC(O)[C@H](CC(C)C)NC(=O)[C@@H](NC(=O)CC(C)C)C(C)C` (some centres not stated), the Ki in test [1] came out at 3 nM; in test [2], 7600 nM.
